# Measured values reported in patent publication US6403626B1, “Benzimidazole derivatives” (Synaptic Pharmaceutical Corporation, priority 1994, dated 2002).
# Where a name gives a salt, the structure may show the parent alone.
row,SMILES,melting point [°C]
1,"Cn1cnc2cc(NC3=NCCN3)ccc21 (as salt: fumarate) [Example 9, 1-Methyl-5-(2-imidazolin-2-ylamino)Benzimidazole]",210 to 211
2,"Cn1cnc2ccc(NC3=NCCN3)cc21 (as salt: fumarate) [Example 11, 3-Methyl-5-(2-imidazolin-2-ylamino)Benzimidazole]",202 to 204
3,"CCCn1cnc2cc(NC3=NCCN3)ccc21 (as salt: fumarate) [Example 13, 1-Propyl-5-(2-imidazolin-2-ylamino)Benzimidazole]",206 to 207
4,"CCCn1cnc2ccc(NC3=NCCN3)cc21 (as salt: fumarate) [Example 15, 3-Propyl-5-(2-imidazolin-2-ylamino)Benzimidazole]",198 to 199
5,"CC(C)n1cnc2cc(NC3=NCCN3)ccc21 (as salt: fumarate) [Example 17, 1-Isopropyl-5-(2-imidazolin-2-ylamino)Benzimidazole]",185 to 186
6,"CC(C)n1cnc2c(Br)c(NC3=NCCN3)ccc21 (as salt: fumarate) [Example 18, 1-Isopropyl-4-bromo-5-(2-imidazolin-2-ylamino)Benzimidazole]",187 to 188
7,"CC(C)n1cnc2c(I)c(NC3=NCCN3)ccc21 (as salt: fumarate) [Example 19, 1-lsopropyl-4-Iodo-5-(2-imidazolin-2-ylamino)Benzimidazole]",208 to 209
8,"CC(C)n1cnc2ccc(NC3=NCCN3)c(Br)c21 (as salt: fumarate) [Example 21, 3-Isopropyl-4-bromo-5-(2-imidazolin-2-ylamino)Benzimidazole]",210 to 212
9,"CC(C)Cn1cnc2cc(NC3=NCCN3)ccc21 (as salt: fumarate) [Example 22, 1-Isobutyl-5-(2-imidazolin-2-ylamino)Benzimidazole]",185 to 186
10,"CC(C)Cn1cnc2ccc(NC3=NCCN3)c(Br)c21 (as salt: fumarate) [Example 24, 3-Isobutyl-4-bromo-5-(2-imidazolin-2-ylamino)Benzimidazole]",187 to 188
11,"c1cc2c(cc1NC1=NCCN1)ncn2C1CCCC1 (as salt: fumarate) [Example 25, 1-Cyclopentyl-5-(2-imidazolin-2-ylamino)Benzimidazole]",214 to 215
12,"Brc1c(NC2=NCCN2)ccc2c1ncn2C1CCCC1 (as salt: fumarate) [Example 26, 1-Cyclopentyl-4-bromo-5-(2-imidazolin-2-ylamino)Benzimidazole]",180 to 182
13,"c1cc2ncn(C3CCCC3)c2cc1NC1=NCCN1 (as salt: fumarate) [Example 27, 3-Cyclopentyl-5-(2-imidazolin-2-ylamino)Benzimidazole]",158 to 159
14,"Brc1c(NC2=NCCN2)ccc2ncn(C3CCCC3)c12 (as salt: fumarate) [Example 28, 3-Cyclopentyl-4-bromo-5-(2-imidazolin-2-ylamino)Benzimidazole]",208 to 210
15,"c1cc2c(cc1NC1=NCCN1)ncn2CC1CCCCC1 (as salt: fumarate) [Example 29, 1-Cyclohexylmethyl-5-(2-imidazolin-2-ylamino)Benzimidazole]",222 to 223
16,"Brc1c(NC2=NCCN2)ccc2c1ncn2CC1CCCCC1 (as salt: fumarate) [Example 30, 1-Cyclohexylmethyl-4-bromo-5-(2-imidazolin-2-ylamino)Benzimidazole]",193 to 195
17,"Brc1c(NC2=NCCN2)ccc2ncn(CC3CCCCC3)c12 (as salt: fumarate) [Example 31, 3-Cyclohexylmethyl-4-bromo-5-(2-imidazolin-2-ylamino)Benzimidazole]",153 to 155
18,"c1ccc(Cn2cnc3cc(NC4=NCCN4)ccc32)cc1 (as salt: fumarate) [Example 32, 1-Benzyl-5-(2-imidazolin-2-ylamino)Benzimidazole]",174 to 175

row,SMILES,melting point [°C]
1,"Brc1c(NC2=NCCN2)ccc2c1ncn2Cc1ccccc1 (as salt: fumarate) [Example 33, 1-Benzyl-4-bromo-5-(2-imidazolin-2-ylamino)Benzimidazole]",197 to 198
2,"c1ccc(Cn2cnc3ccc(NC4=NCCN4)cc32)cc1 (as salt: fumarate) [Example 34, 3-Benzyl-5-(2-imidazolin-2-ylamino)Benzimidazole]",174 to 175
3,"Brc1c(NC2=NCCN2)ccc2ncn(Cc3ccccc3)c12 (as salt: fumarate) [Example 35, 3-Benzyl-4-bromo-5-(2-imidazolin-2-ylamino)Benzimidazole]",203 to 205
4,"COc1cccc(Cn2cnc3c(Br)c(NC4=NCCN4)ccc32)c1 (as salt: fumarate) [Example 37, 1-(3-Methoxybenzyl)-4-bromo-5-(2-imidazolin-2-ylamino)Benzimidazole]",177 to 178
5,"OCCn1cnc2c(Br)c(NC3=NCCN3)ccc21 (as salt: fumarate) [Example 38, 1-(2-Hydroxyethyl)-4-bromo-5-(2-imidazolin-2-ylamino)Benzimidazole]",141 to 143
6,"Cc1nc2ccc(NC3=NCCN3)c(Br)c2[nH]1 (as salt: fumarate) [Example 42, 2-Methyl-4-bromo-5-(2-imidazolin-2-ylamino)Benzimidazole]",222 to 224
7,"CCc1nc2ccc(NC3=NCCN3)c(Br)c2[nH]1 (as salt: fumarate) [Example 43, 2-Ethyl-4-bromo-5-(2-imidazolin-2-ylamino)Benzimidazole]",186 to 187
8,"CC(C)c1nc2ccc(NC3=NCCN3)c(Br)c2[nH]1 (as salt: fumarate) [Example 44, 2-Isopropyl-4-bromo-5-(2-imidazolin-2-ylamino)Benzimidazole]",176 to 178
9,"CC(C)(C)c1nc2ccc(NC3=NCCN3)c(Br)c2[nH]1 (as salt: fumarate) [Example 45, 2-tert-Butyl-4-bromo-5-(2-imidazolin-2-ylamino)Benzimidazole]",176 to 178
10,"Brc1c(NC2=NCCN2)ccc2nc(C(c3ccccc3)c3ccccc3)[nH]c12 (as salt: fumarate) [Example 48, 2-Diphenylmethyl-4-bromo-5-(2-imidazolin-2-ylamino)Benzimidazole]",240 to 242
11,"Cc1cc2nc[nH]c2cc1NC1=NCCN1 (as salt: fumarate) [Example 49, 6-Methyl-5-(2-imidazolin-2-ylamino)Benzimidazole]",219 to 221
12,"Brc1cc(NC2=NCCN2)cc2[nH]cnc12 (as salt: fumarate) [Example 51, 7-Bromo-5-(2-imidazolin-2-ylamino)Benzimidazole]",217 to 218
13,"Cc1cc(NC2=NCCN2)cc2[nH]cnc12 (as salt: fumarate) [Example 52, 7-Methyl-5-(2-imidazolin-2-ylamino)Benzimidazole]",229 to 231
14,"Clc1cc(NC2=NCCN2)cc2[nH]cnc12 (as salt: fumarate) [Example 53, 7-Chloro-5-(2-imidazolin-2-ylamino)Benzimidazole]",220 to 221
15,"CCc1cc(NC2=NCCN2)cc2[nH]cnc12 (as salt: fumarate) [Example 55, 7-Ethyl-5-(2-imidazolin-2-ylamino)Benzimidazole]",203 to 205
16,"CCCCc1cc(NC2=NCCN2)cc2[nH]cnc12 (as salt: fumarate) [Example 56, 7-Butyl-5-(2-imidazolin-2-ylamino)Benzimidazole]",115 to 117
17,"c1ccc(-c2cc(NC3=NCCN3)cc3[nH]cnc23)cc1 (as salt: fumarate) [Example 57, 7-Phenyl-5-(2-imidazolin-2-ylamino)Benzimidazole]",149 to 151
18,"Clc1cc(NC2=NCCN2)c(Br)c2[nH]cnc12 (as salt: fumarate) [Example 60, 4-Bromo-7-chloro-5-(2-imidazolin-2-ylamino)Benzimidazole]",244 to 246
